{
  "source": "the OPERA property sets (Mansouri et al. 2018)",
  "data": [
    {"conditions": "not given", "units": {"solubility": "mM"}, "values": [
      {"smiles": "CCC1(C)CC(=O)NC1=O", "note": "(centres undefined)", "logP": 0.38},
      {"smiles": "N#Cc1cc(-c2ccncc2)cnc1NCCO", "logP": 1.17},
      {"smiles": "Nc1ncnc2c1ncn2Cc1ccccc1", "logP": 1.7},
      {"smiles": "O=C1CC(c2ccccc2)Oc2ccccc21", "note": "(centres undefined)", "logP": 3.14},
      {"smiles": "CCNc1ncc(-c2ccncc2)cc1C#N", "logP": 2.33},
      {"smiles": "C#CC(C)(C)NC(=O)c1cc(Cl)cc(Cl)c1", "logP": 3.43},
      {"smiles": "CCCCCCCCCCCC", "logP": 6.1},
      {"smiles": "O=C(OCCOCCOCCO)c1ccccc1", "logP": 1.09},
      {"smiles": "CC1CCc2cc(F)cc3c(=O)c(C(=O)O)cn1c23", "note": "(centres undefined)", "logP": 1.6},
      {"smiles": "CCCCCCCCCC(C)=O", "logP": 4.09},
      {"smiles": "CC1=CC(=NNC(=N)N)C=CC1=NNC(N)=S", "logP": 1.66},
      {"smiles": "Oc1cccc2ncccc12", "logP": 1.85},
      {"smiles": "CC(=O)c1cc2c(cc1C)C(C)(C)C(C)CC2(C)C", "note": "(centres undefined)", "logP": 5.7, "solubility": 0.00484},
      {"smiles": "NS(=O)(=O)c1cc2cc(CNCCO)sc2s1", "logP": -0.72},
      {"smiles": "O=[N+]([O-])c1cccc(O)c1", "solubility": 97.1},
      {"smiles": "Clc1cccc(O[Si]23OCCN(CCO2)CCO3)c1", "logP": 0.46},
      {"smiles": "O=[N+]([O-])c1cc(C(F)F)c(Nc2ncc(C(F)(F)F)cc2Cl)c([N+](=O)[O-])c1", "logP": 3.52},
      {"smiles": "NC(=O)NCCCn1nc(-c2ccccc2)ccc1=O", "logP": 0.69},
      {"smiles": "O=[N+]([O-])c1c(Cl)cc(Cl)cc1Cl", "logP": 3.69},
      {"smiles": "CCCN(C)N=O", "logP": 0.56},
      {"smiles": "CC(C)/N=c1/cc2n(-c3ccc(Cl)cc3)c3ccccc3nc-2cc1Nc1ccc(Cl)cc1", "logP": 7.66},
      {"smiles": "CC(C)Cc1ccc(C(C)(O)C(=O)O)cc1", "note": "(centres undefined)", "logP": 2.75},
      {"smiles": "O=P(O)(O)CN(CCCCCCN(CP(=O)(O)O)CP(=O)(O)O)CP(=O)(O)O", "logP": -4.43, "solubility": 30.5},
      {"smiles": "O=C([O-])c1ccccc1O.[Na+]", "solubility": 781},
      {"smiles": "O=C1OC(=Nc2ccc(Cl)cc2)C2=C1CCCC2", "logP": 3.84},
      {"smiles": "CC(C)CC(=O)OCc1ccccc1", "logP": 3.26},
      {"smiles": "Cc1ccc(C)c(C)n1", "logP": 2.05},
      {"smiles": "CCOC(=O)C1=C(COCCN)NC(C)=C(C(=O)OC)C1c1ccccc1Cl", "note": "(centres undefined)", "logP": 3},
      {"smiles": "COCC(C)OC(C)=O", "note": "(centres undefined)", "logP": 0.56},
      {"smiles": "CC(C)CCCCCCCOP(=O)(Oc1ccccc1)Oc1ccccc1", "logP": 5.44},
      {"smiles": "C=CC(=O)NCCCN(C)C", "logP": 0},
      {"smiles": "CCC(C)n1ncn(-c2ccc(N3CCN(c4ccc(OC[C@H]5CO[C@](Cn6cncn6)(c6ccc(Cl)cc6Cl)O5)cc4)CC3)cc2)c1=O", "note": "(some centres undefined)", "logP": 5.66},
      {"smiles": "c1ccc2c(c1)ccc1nc3c(ccc4ccccc43)cc12", "logP": 5.73},
      {"smiles": "C[Si]1(C)O[Si](C)(C)O[Si](C)(C)O[Si](C)(C)O[Si](C)(C)O[Si](C)(C)O1", "logP": 9.06},
      {"smiles": "C=C(C)C(N)=O", "logP": -1.11},
      {"smiles": "CCNC(=S)NCC", "logP": 0.57},
      {"smiles": "O=C(O)CNC(=O)c1ccccc1I", "logP": 0.97},
      {"smiles": "CCCCCCNC(=O)CCC(NS(=O)(=O)c1ccc(C)cc1)C(=O)O", "note": "(centres undefined)", "logP": 0.84},
      {"smiles": "CN(C)P(=O)(N1CCCC1)N1CCCC1", "logP": 1.88},
      {"smiles": "CCC(=O)OC1(c2ccccc2)CCN(C)CC1CC", "note": "(centres undefined)", "logP": 3.61},
      {"smiles": "CCCCCCCCCCOC(=O)c1ccccc1C(=O)OCCCCCCCCCC", "logP": 9.05},
      {"smiles": "NC(N)=Nc1nc(CSCCC(N)=NS(N)(=O)=O)cs1", "logP": -0.64},
      {"smiles": "NC(=O)c1ccccc1NCCO", "logP": -0.05},
      {"smiles": "CS/C(C)=N/O", "logP": 1.12},
      {"smiles": "COC(=O)C1=C(C)NC(C)=C(C(=O)O[C@@H]2CCCN(Cc3ccccc3)C2)[C@@H]1c1cccc([N+](=O)[O-])c1", "logP": 4.61},
      {"smiles": "S=C=Nc1ccc(I)cc1", "logP": 4.22},
      {"smiles": "c1ncncn1", "logP": 0.12},
      {"smiles": "O=CC=Cc1ccc([N+](=O)[O-])o1", "logP": 0.96},
      {"smiles": "CCCNc1nc(C)nc(C(Cl)(Cl)Cl)n1", "logP": 3.29},
      {"smiles": "COc1ccc(-c2cc(C#N)c(Cl)nc2C)cc1OC", "logP": 2.86}
    ]},
    {"conditions": "20 °C", "units": {"solubility": "mM"}, "values": [
      {"smiles": "C=CCN(CC=C)c1c(C)cc(OC(=O)NC)cc1C", "solubility": 0.255},
      {"smiles": "CCOP(=S)(OCC)Oc1nc(Cl)n(C(C)C)n1", "solubility": 0.324},
      {"smiles": "N#Cc1cccnc1", "solubility": 1300},
      {"smiles": "CC(C)COC(=O)C(C)C", "solubility": 5.24}
    ]},
    {"conditions": "23 °C", "units": {"solubility": "mM"}, "values": [
      {"smiles": "NC(=O)c1c(Cl)cccc1Cl", "solubility": 14.4},
      {"smiles": "C[Si]1(C)O[Si](C)(C)O[Si](C)(C)O[Si](C)(C)O[Si](C)(C)O[Si](C)(C)O1", "solubility": "1.15e-05"}
    ]},
    {"conditions": "23.0 °C", "values": [
      {"smiles": "CC(=O)C(C)CO", "note": "(centres undefined)", "log10 OH rate constant (cm³/molecule/s)": -10.8}
    ]},
    {"conditions": "24 °C", "units": {"solubility": "mM"}, "values": [
      {"smiles": "COc1cc(C=O)cc(Cl)c1O", "solubility": 1.33}
    ]},
    {"conditions": "24.0 °C", "values": [
      {"smiles": "Clc1cccc2c1Oc1ccccc1O2", "log10 OH rate constant (cm³/molecule/s)": -11.3}
    ]},
    {"conditions": "25 °C", "units": {"solubility": "mM"}, "values": [
      {"smiles": "ClC1=C(Cl)C(Cl)(Cl)C(Cl)=C1Cl", "solubility": 0.0066},
      {"smiles": "FC(F)(Cl)Cl", "solubility": 2.32},
      {"smiles": "CCCCCN(CCCCC)CCCCC", "solubility": 0.0928},
      {"smiles": "Clc1ccccc1-c1ccccc1", "solubility": 0.0256},
      {"smiles": "CCOP(=O)(N=C1SCCS1)OCC", "solubility": 2.55},
      {"smiles": "CCCCOCCOC(=O)COc1ccc(Cl)cc1Cl", "solubility": 0.0374},
      {"smiles": "CCCCC(=O)O[C@]1(C(=O)CO)[C@@H](C)C[C@H]2[C@@H]3CCC4=CC(=O)C=C[C@]4(C)[C@@]3(F)[C@@H](O)C[C@@]21C", "solubility": 0.0195},
      {"smiles": "CC(=O)c1ccc(-c2ccccc2)cc1", "solubility": 0.489},
      {"smiles": "COCC(C)OC(C)=O", "note": "(centres undefined)", "solubility": 1500},
      {"smiles": "O=[N+]([O-])c1cccc2ccccc12", "solubility": 0.053},
      {"smiles": "Clc1cccc2cccc(Cl)c12", "solubility": 0.0016},
      {"smiles": "Cc1cccc(C)c1", "solubility": 1.52},
      {"smiles": "CN(C)c1ccc(N=Nc2ccc(N)cc2)cc1", "solubility": 0.0255},
      {"smiles": "COCCc1ccc(OCC(O)CNC(C)C)cc1", "note": "(centres undefined)", "solubility": 63.2},
      {"smiles": "CCOP(=S)(OCC)SCSC(C)(C)C", "solubility": 0.0176}
    ]},
    {"conditions": "25.0 °C", "values": [
      {"smiles": "C=CCOC(F)(F)C(F)F", "log10 OH rate constant (cm³/molecule/s)": -10.7},
      {"smiles": "FC(F)(F)CCC(F)(F)F", "log10 OH rate constant (cm³/molecule/s)": -14.1},
      {"smiles": "Clc1c(Cl)c(Cl)c2c(c1Cl)Oc1ccccc1O2", "log10 OH rate constant (cm³/molecule/s)": -12.1},
      {"smiles": "CCCCCCBr", "log10 OH rate constant (cm³/molecule/s)": -11.2},
      {"smiles": "C1CN2CCN1CC2", "log10 OH rate constant (cm³/molecule/s)": -10.7},
      {"smiles": "OCC(F)(F)C(F)(F)F", "log10 OH rate constant (cm³/molecule/s)": -13},
      {"smiles": "FC(F)(F)CBr", "log10 OH rate constant (cm³/molecule/s)": -13.7}
    ]},
    {"conditions": "27.0 °C", "values": [
      {"smiles": "Cc1ccc(C)o1", "log10 OH rate constant (cm³/molecule/s)": -9.88}
    ]}
  ]
}
